Results on 22 compounds are retold here after patent publication US10654837B2, “Sulphamoylaryl derivatives and use thereof as medicaments for the treatment of liver fibrosis” (Janssen Pharmaceutica NV, priority 2017, dated 2020).

In the test the target is T1, 5HTR2B (Homo sapiens, UniProt P41595).
T1 construct: host or cells: human Maverick/293 cells
T1 sequence (P41595 whole entry): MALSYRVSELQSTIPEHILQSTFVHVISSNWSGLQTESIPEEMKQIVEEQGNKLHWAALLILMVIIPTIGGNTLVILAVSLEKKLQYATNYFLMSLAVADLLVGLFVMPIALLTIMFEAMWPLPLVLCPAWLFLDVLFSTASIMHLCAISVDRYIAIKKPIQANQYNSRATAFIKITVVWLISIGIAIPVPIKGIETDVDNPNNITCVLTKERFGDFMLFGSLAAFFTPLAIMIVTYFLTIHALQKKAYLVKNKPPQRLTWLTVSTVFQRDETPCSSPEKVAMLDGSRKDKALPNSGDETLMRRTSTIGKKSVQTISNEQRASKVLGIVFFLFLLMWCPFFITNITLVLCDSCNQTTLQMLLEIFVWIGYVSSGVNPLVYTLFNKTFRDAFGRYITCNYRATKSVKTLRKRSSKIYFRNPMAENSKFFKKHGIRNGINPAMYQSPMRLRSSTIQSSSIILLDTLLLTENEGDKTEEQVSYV
The experiment in a line: 5HTR2B antagonist activity, calcium mobilization assay in human Maverick/293 cells (serotonin as agonist). The class given is cell-based. The conditions noted are these: intracellular calcium, emission 525 nm, read-out: Ca assay IC50. As to the method: The 5HTR2B antagonist activity was measured using human Maverick/293 cells in a calcium mobilization assay. The measurement starting with plating human Maverick/293 cells (log phase) onto 96-well black and incubate at 37° C. overnight, Followed by starving cells for 2 h by changing complete medium to DMEM without FBS, removing the medium from the 96-well plate. Loading staining calcium buffer into each well and incubated the plate at 37° C. for 50 min. After removal of staining calcium buffer, diluted antagonist were added into the well, incubate 15 to 30 minutes. Dispense serotonin as the 5HTR2B agonists into each well. Intracellular calcium concentration is recorded for 80 seconds by monitoring an emission at a wavelength of 525 nm with an excitation wavelength of 485 nm. Inhibition efficiency of the cell line was determined following the equation: % Inhibition=100%−(D−B)/(S−B)*100%. (S: The peak value in the presence of agonist serotonin; D: The peak value in the presence of different dilution compound or serotonin; B: The peak value in the presence of calcium HBSS buffer only). […] A dose response curve was fitted using nonlinear regression model with a sigmoidal dose response. The IC50 was automatically produced by GraphPad Prism 5.0.
In general terms: Calcium assays in cells follow changes in intracellular calcium, usually with a dye or a luminescent sensor.
For orientation: IC50 means the concentration needed to halve the response being measured. Consider `COc1ccc(S(=O)(=O)NC(C)CC#N)cc1C(=O)Nc1ccc(F)c(C)c1` (single isomer, unassigned) [Compound 11a, (S*)-5-(N-(1-Cyanopropan-2-yl)sulfamoyl)-N-(4-fluoro-3-methylphenyl)-2-methoxybenzamide], for which the IC50 came to 68 nM.
As to `COc1ccc(S(=O)(=O)N[C@H](C)CC#N)cc1C(=O)Nc1ccc(F)c(C)c1` (single isomer, unassigned) [Compound 11b, (R*)-5-(N-(1-Cyanopropan-2-yl)sulfamoyl)-N-(4-fluoro-3-methylphenyl-2-methoxybenzamide], the IC50 came out at 5.1 nM.
Consider `COc1ccc(S(=O)(=O)N[C@@H]2CC[C@H](O)C2)cc1C(=O)Nc1ccc(F)c(C)c1` (single isomer, unassigned) [Compound 15b, N-(4-Fluoro-3-methylphenyl)-5-(N-((cis)-3-hydroxycyclopentyl)sulfamoyl)-2-methoxybenzamide], for which the IC50 is 1 nM.
Turning to `COc1ccc(S(=O)(=O)NC2CCCOC2)cc1C(=O)Nc1ccc(F)c(C)n1` (single isomer, unassigned) [Compound 16a, (S*)—N-(5-Fluoro-6-methylpyridin-2-yl)-2-methoxy-5-(N-(tetrahydro-2H-pyran-3-yl)sulfamoyl)benzamide], the 50% inhibitory concentration (IC50) stood at 1.1 nM.
Take `COc1ccc(S(=O)(=O)NC2CCCOC2)cc1C(=O)Nc1ccc(F)c(C)n1` (single isomer, unassigned) [Compound 16b, (R*)—N-(5-Fluoro-6-methylpyridin-2-yl)-2-methoxy-5-(N-(tetrahydro-2H-pyran-3-yl)sulfamoyl)benzamide]: the IC50 amounted to 9.1 nM.
Consider `COc1ccc(S(=O)(=O)NCC(O)C(F)(F)F)cc1C(=O)Nc1ccc(F)c(C)n1` (single isomer, unassigned) [Compound 23a, (R*)—N-(5-fluoro-6-methylpyridin-2-yl)-2-methoxy-5-(N-(3,3,3-trifluoro-2-hydroxypropyl)sulfamoyl)benzamide], for which the IC50 was found to be 4.7 nM.
As for `COc1ccc(S(=O)(=O)NCC(O)C(F)(F)F)cc1C(=O)Nc1ccc(F)c(C)n1` (single isomer, unassigned) [Compound 23b, (S*)—N-(5-fluoro-6-methylpyridin-2-yl)-2-methoxy-5-(N-(3,3,3-trifluoro-2-hydroxypropyl)sulfamoyl)benzamide], the IC50 amounted to 5 nM.
Take `COc1ccc(S(=O)(=O)NC(C)C(F)(F)F)cc1C(=O)Nc1ccc(F)c(C)n1` (single isomer, unassigned) [Compound 29a, (S*)—N-(5-Fluoro-6-methylpyridin-2-yl)-2-methoxy-5-(N-(1,1,1-trifluoropropan-2-yl)sulfamoyl)benzamide]: the concentration for half-maximal inhibition (IC50) was determined as 3 nM.
To `COc1ccc(S(=O)(=O)NC(C)C(F)(F)F)cc1C(=O)Nc1ccc(F)c(C)n1` (single isomer, unassigned) [Compound 29b, (R*)—N-(5-Fluoro-6-methylpyridin-2-yl)-2-methoxy-5-(N-(1,1,1-trifluoropropan-2-yl)sulfamoyl)benzamide] belongs 4.6 nM; to `COCC(C)NS(=O)(=O)c1ccc(OC)c(C(=O)Nc2ccc(F)c(C(F)F)c2)c1` (single isomer, unassigned) [Compound 32a, (R*)—N-(3-(Difluoromethyl)-4-fluorophenyl)-2-methoxy-5-(N-(1-methoxypropan-2-yl)sulfamoyl)benzamide], 1.8 nM.
With `COCC(C)NS(=O)(=O)c1ccc(OC)c(C(=O)Nc2ccc(F)c(C(F)F)c2)c1` (single isomer, unassigned) [Compound 32b, (S*)—N-(3-(Difluoromethyl)-4-fluorophenyl)-2-methoxy-5-(N-(1-methoxypropan-2-yl)sulfamoyl)benzamide], the half-inhibitory concentration (IC50) is 8.5 nM.
For `COc1ccc(S(=O)(=O)N[C@@H]2CC[C@H](O)C2)cc1C(=O)Nc1ccc(F)c(C(F)F)c1` (single isomer, unassigned) [Compound 33a, N-(3-(Difluoromethyl)-4-fluorophenyl)-5-(N-((cis)-3-hydroxycyclopentyl)sulfamoyl)-2-methoxybenzamide], the IC50 was 0.4 nM.
In the case of `COC[C@H](C)NS(=O)(=O)c1ccc(OC)c(C(=O)Nc2ccc(F)cc2)c1` (single isomer, unassigned) [Compound 40a, (S*)—N-(4-Fluorophenyl)-2-methoxy-5-(N-(1-methoxypropan-2-yl)sulfamoyl) benzamide], the IC50 turned out to be 1.7 nM.
Regarding `COC[C@@H](C)NS(=O)(=O)c1ccc(OC)c(C(=O)Nc2ccc(F)cc2)c1` (single isomer, unassigned) [Compound 40b, (R*)—N-(4-Fluorophenyl)-2-methoxy-5-(N-(1-methoxypropan-2-yl)sulfamoyl) benzamide], the IC50 came to 9.5 nM.
As to `COc1ccc(S(=O)(=O)NCC(O)C(F)(F)F)cc1C(=O)Nc1ccc(F)cc1` (single isomer, unassigned) [Compound 44a, (S*)—N-(4-Fluorophenyl)-2-methoxy-5-(N-(3,3,3-trifluoro-2-hydroxypropyl)sulfamoyl)benzamide], the IC50 was determined as 2.4 nM.
To `COc1ccc(S(=O)(=O)NCC(O)C(F)(F)F)cc1C(=O)Nc1ccc(F)cc1` (single isomer, unassigned) [Compound 44b, (R*)—N-(4-Fluorophenyl)-2-methoxy-5-(N-(3,3,3-trifluoro-2-hydroxypropyl)sulfamoyl)benzamide] belongs 3.2 nM; to `COc1ccc(S(=O)(=O)N[C@@H]2CC[C@H](O)C2)cc1C(=O)Nc1ccc(F)cc1` (single isomer, unassigned) [Compound 45a, N-(4-Fluorophenyl)-5-(N-((cis)-3-hydroxycyclopentyl)sulfamoyl)-2-methoxybenzamide], 1.3 nM; to `COc1ccc(S(=O)(=O)N[C@H]2CCN(C)C2=O)cc1C(=O)Nc1ccccc1Cl` (single isomer, unassigned) [Compound 54a, (S*)—N-(2-Chlorophenyl)-2-methoxy-5-(1-methyl-2-oxopyrrolidin-3-yl) sulfamoyl)benzamide], 1.1 nM.
With `COc1ccc(S(=O)(=O)NC2CCN(C)C2=O)cc1C(=O)Nc1ccccc1Cl` (single isomer, unassigned) [Compound 54b, (R*)—N-(2-Chlorophenyl)-2-methoxy-5-(N-(1-methyl-2-oxopyrrolidin-3-yl)sulfamoyl)benzamide], the IC50 turned out to be 1.2 nM.
Regarding `COc1ccc(S(=O)(=O)N[C@@H](C)CC#N)cc1C(=O)Nc1ccccc1Cl` (single isomer, unassigned) [Compound 60a, (S*)—N-(2-Chlorophenyl)-5-(N-(1-cyanopropan-2-yl)sulfamoyl)-2-methoxy benzamide], the IC50 was 0.4 nM.
Regarding `COc1ccc(S(=O)(=O)N[C@H](C)CC#N)cc1C(=O)Nc1ccccc1Cl` (single isomer, unassigned) [Compound 60b, (R*)—N-(2-chlorophenyl)-5-(N-(1-cyanopropan-2-yl)sulfamoyl)-2-methoxy benzamide], the IC50 is 0.4 nM.
Consider `COc1ccc(NS(=O)(=O)[C@H]2CCOC2)cc1C(=O)Nc1ccc(F)c(C)c1` (single isomer, unassigned) [Compound 202a, (S*)N-4-fluoro-3-methylphenyl)-2-methoxy-5-(tetrahydrofuran-3-sulfonamido)benzamide], for which the IC50 turned out to be 1 nM.
